{
  "source": "patent US10357525B2",
  "about": "“Use of a polysaccharide mixture for treating hyperglycemia” (TRINEO BIOTECHNOLOGY CO. LTD, priority 2017, dated 2019)",
  "tested_on": "NIT-1 cells",
  "assay": "STZ-induced apoptosis in NIT-1 cells, cell viability by MTT assay",
  "format": "cell-based, mice",
  "conditions": "STZ 8 μM alone, FIG. 1",
  "description": "Cells. Cell line used in the present study was pancreatic beta cell line NIT-1 ([…], BCRC). NIT-1 cells were cultured and maintained in Ham's F12K medium with 2 mM L-glutamine adjusted to contain 1.5 g/L sodium bicarbonate, 90%; heat-inactivated dialyzed fetal bovine serum(FBS), 10%; 100 units/mL penicillin G, 100 units/mL streptomycin (pH 7.4) and 1% non-essential amino acids(NEAA). were maintained in humidified environment comprising 5%CO2/95% air at 37° C.\nNIT-1 cells were seeded into 96-well plates at a density of 1.0×10^5 cells per well and cultured in their normal growth media overnight. Next day, cells were incubated in the presence of streptozotocin (STZ) (8 μM) and the polysaccharide mixture (abbreviated as “FPA”, 100 μg/mL) of the present invention for 24 hrs, then cell viability was determined by MTT assay.\nNIT-1 cells are pancreatic beta cell lines established from transgenic mice spontaneously developing beta-cell adenoma, thus, NIT-1 cells are suitable for hyperglycemia study for they are not responsive to glucose in the physiological range. […] Accordingly, the protective effect of the present polysaccharide mixture of example 1 on STZ-treated NIT-1 cells was evaluated by MTT assay. Result is illustrated in FIG. 1.",
  "data": [
    {"smiles": "CN(N=O)C(=O)N[C@H]1C(O)O[C@H](CO)[C@@H](O)[C@@H]1O", "note": "(mixture of isomers) [STZ, streptozotocin]", "values": [
      {"measurement": "portion of NIT-1 cells died", "result": "about 60%"}
    ]}
  ]
}
